As a reminder, the pKi is the negative decadic logarithm of the Ki, by convention in mol/L. Lower therefore signals a high Ki. A word on the pIC50: it is −log10 of the IC50, conventionally taken in molar units. For orientation: Emax means the size of the effect at its maximum, as opposed to the concentration needed. In general, pEC50 refers to −log10 of the EC50, conventionally taken in molar units.

Each structure is given as a SMILES string. pEC50, pIC50, pKi: −log10 of the molar value. The source made the active and inactive calls. The rule behind the calls is not given here. Bounds are passed on as bounds.

In assay [1] the target is T1, Neuronal acetylcholine receptor; alpha3/beta4 (Homo sapiens, UniProt P30926+P32297). Nature of the assay: Agonist activity at human alpha3beta4 nAChR expressed in CHO cells at 10 uM by electrophysiological analysis relative to acetylcholine. The class given is cell-based.
Assay [2] addresses T1, Neuronal acetylcholine receptor; alpha3/beta4. In words: Agonist activity at human alpha3beta4 nAChR expressed in CHO cells at 1 uM by electrophysiological analysis relative to acetylcholine. The class given is cell-based.
Assay [3] has the same target. In words: Agonist activity at human alpha3beta4 nAChR expressed in CHO cells at 0.1 uM by electrophysiological analysis relative to acetylcholine. The class given is cell-based.
Assay [4] shares this target. In words: Displacement of [3H]epibatidine from human alpha3beta4 nAChR expressed in CHO cells after 2 hrs by liquid scintillation counting. The format is cell-based. On the technique in general: Loss of bound radioactivity is the signal in a displacement assay; it reports binding, not function.
Assay [5] has the same target. In words: Inhibition of human alpha3beta4 nAChR expressed in CHO cells assessed as inhibition of calcium influx by calcium-4 based FLIPR analysis. The format is cell-based.
Assay [6] shares this target. Nature of the assay: Agonist activity at human alpha3beta4 nAChR expressed in CHO cells assessed as calcium influx by calcium-4 based FLIPR analysis relative to nicotine. The class given is cell-based.
Assay [7] shares this target. In words: Agonist activity at human alpha3beta4 nAChR expressed in CHO cells assessed as calcium influx by calcium-4 based FLIPR analysis. The format is cell-based.
Assay [8] shares this target. In words: Reversible inhibition of human alpha3beta4 nAChR expressed in CHO cells assessed as inhibition of acetylcholine-induced response at 1 uM measured after compound washout by electrophysiological method. The class given is cell-based.
The target is the same in assay [9]. In words: Non-competitive antagonist activity at human alpha3beta4 nAChR expressed in CHO cells assessed as inhibition of nicotine-induced calcium influx incubated for 30 mins prior to nicotine-induction by calcium-4 based FLIPR analysis. The format is cell-based.
Assay [10] deals with T2, Muscarinic acetylcholine receptor M2 (Rattus norvegicus, UniProt P10980).
T2 sequence (P10980 whole entry): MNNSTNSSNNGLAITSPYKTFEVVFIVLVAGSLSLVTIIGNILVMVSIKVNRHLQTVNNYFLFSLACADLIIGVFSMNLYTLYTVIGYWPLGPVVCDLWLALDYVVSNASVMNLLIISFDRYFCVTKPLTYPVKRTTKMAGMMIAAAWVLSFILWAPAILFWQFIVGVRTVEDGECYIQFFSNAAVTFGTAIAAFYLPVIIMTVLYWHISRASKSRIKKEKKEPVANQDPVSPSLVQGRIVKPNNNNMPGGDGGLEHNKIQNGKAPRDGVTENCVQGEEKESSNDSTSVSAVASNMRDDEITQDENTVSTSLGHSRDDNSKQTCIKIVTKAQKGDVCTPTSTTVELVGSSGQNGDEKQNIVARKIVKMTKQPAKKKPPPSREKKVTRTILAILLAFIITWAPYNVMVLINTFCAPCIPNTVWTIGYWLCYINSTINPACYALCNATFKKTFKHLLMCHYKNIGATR
Nature of the assay: Antagonist activity at rat muscarinic M2 receptor isolated from brain.

For assay [11], the target named is T3, Muscarinic acetylcholine receptor M1 (Rattus norvegicus, UniProt P08482).
T3 sequence (P08482 whole entry): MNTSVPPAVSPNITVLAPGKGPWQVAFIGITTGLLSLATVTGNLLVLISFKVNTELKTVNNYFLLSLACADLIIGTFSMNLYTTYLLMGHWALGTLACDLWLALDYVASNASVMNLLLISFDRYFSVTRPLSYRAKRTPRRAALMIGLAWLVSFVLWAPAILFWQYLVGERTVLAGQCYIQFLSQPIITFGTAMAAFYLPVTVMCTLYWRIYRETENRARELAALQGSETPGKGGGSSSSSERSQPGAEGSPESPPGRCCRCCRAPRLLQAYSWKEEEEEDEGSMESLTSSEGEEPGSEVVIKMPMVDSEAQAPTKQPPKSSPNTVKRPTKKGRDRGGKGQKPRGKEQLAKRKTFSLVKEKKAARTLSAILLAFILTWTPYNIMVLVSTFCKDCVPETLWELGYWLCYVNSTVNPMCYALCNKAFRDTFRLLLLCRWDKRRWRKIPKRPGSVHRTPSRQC
In words: Antagonist activity at rat muscarinic M1 receptor isolated from brain.

T1 sequence (P30926 whole entry): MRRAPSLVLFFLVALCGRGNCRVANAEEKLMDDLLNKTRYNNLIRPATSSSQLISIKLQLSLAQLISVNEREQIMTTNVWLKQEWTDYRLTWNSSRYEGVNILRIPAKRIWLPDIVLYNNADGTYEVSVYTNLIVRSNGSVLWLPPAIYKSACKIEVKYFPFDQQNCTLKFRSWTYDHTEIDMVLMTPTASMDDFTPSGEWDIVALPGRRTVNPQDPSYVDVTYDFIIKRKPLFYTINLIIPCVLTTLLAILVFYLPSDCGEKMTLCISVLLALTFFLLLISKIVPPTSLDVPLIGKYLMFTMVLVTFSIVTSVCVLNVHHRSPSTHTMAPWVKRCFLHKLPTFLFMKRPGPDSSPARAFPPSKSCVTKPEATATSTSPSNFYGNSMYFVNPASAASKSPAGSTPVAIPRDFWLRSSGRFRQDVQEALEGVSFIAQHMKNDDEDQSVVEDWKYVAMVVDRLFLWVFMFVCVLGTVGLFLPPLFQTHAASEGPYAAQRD
T1 sequence (P32297 whole entry): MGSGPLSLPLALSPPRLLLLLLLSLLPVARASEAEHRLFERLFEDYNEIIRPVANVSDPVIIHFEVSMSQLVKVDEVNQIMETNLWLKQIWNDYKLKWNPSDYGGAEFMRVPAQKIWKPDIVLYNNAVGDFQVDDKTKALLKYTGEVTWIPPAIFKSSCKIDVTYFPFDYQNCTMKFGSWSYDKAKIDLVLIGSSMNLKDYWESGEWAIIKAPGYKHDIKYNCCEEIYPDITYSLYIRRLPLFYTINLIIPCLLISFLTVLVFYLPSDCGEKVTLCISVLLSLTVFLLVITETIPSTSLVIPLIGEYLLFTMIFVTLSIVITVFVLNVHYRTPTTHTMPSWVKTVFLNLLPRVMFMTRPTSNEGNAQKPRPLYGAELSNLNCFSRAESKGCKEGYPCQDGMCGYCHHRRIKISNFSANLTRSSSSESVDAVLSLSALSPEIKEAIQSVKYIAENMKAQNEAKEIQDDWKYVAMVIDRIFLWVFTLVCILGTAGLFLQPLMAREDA

`C(=C1/CN2CCC1CC2)/c1ccccc1`: the Activity in assay [1] was 7%; in [2], 2%; in [3], 1%. The compound also showed a pKi in assay [4] of 5.68. In assay [5], the pIC50 is 5.22. Further, in assay [6], the Emax was determined as 25%. Besides, the pEC50 in assay [7] is 5.52.

With `c1ccc(C(c2ccccc2)C2CN3CCC2CC3)cc1` (stereo not given), in assay [8], the inhibition entry is “Active”. In addition, the results for the pIC50 in assay [9] and in [5] were 6.40 and 6.70, respectively. The Activity in [1] was 7%; in assay [2], 2%; in assay [3], 0.5%. This compound had a pKi in assay [4] of 5.82. Moreover, the Emax in [6] was 14%. The pEC50 in assay [7] was less than 5.00.

For `N#CC(c1ccccc1)C1CN2CCC1CC2` (stereo not given), the Activity in assay [1] was 6%; in [2] it was 2%; in assay [3] it was 1%. Moreover, the pKi in assay [4] was 5.68. Besides, the pIC50 in [5] was 4.64. Also, the Emax in assay [6] is less than 10%.

In the case of `C(CN1CCCCC1)=C(c1ccccc1)c1ccccc1`, the pIC50 in assay [10] is 6.43; in assay [11] it was 7.12; in assay [9], 6.42; in [5], 7.00. Besides, in assay [8], the inhibition result is “inactive”. For the same compound, the Activity in assay [1] worked out at 0.6%; in [2], 0.7%; in assay [3], 0.5%. In addition, the pKi in assay [4] was 5.66. Besides, in assay [6], the Emax stood at 31%. In assay [7], the pEC50 is less than 5.00.

As to `c1ccc(C[N+]23CCC(CC2)C(C(c2ccccc2)c2ccccc2)C3)cc1` (stereo not given), in [8], the inhibition result was “inactive”. The pIC50 was 6.22 in assay [9] and 7.10 in assay [5]. Further, the Activity in assay [1] turned out to be 0.4%; in [2], 1%; in assay [3] it was 0.5%. The pKi in assay [4] is 5.64. Besides, in assay [6], the Emax turned out to be 10%. In addition, in assay [7], the pEC50 is 5.05.

In the case of `C(=C1/CN2CCC1CC2)/c1cccnc1`, the Activity amounted to 56% in [1], 22% in assay [2] and 5% in [3]. Also, the pKi in assay [4] was 5.80. The pIC50 in assay [5] was 5.00. In addition, in assay [6], the Emax was 31%. For the same compound, the pEC50 in assay [7] is 5.70.

For `c1ccc(C(c2ccccc2)[N+]23CCN(CC2)CC3)cc1`, the Activity in [1] amounted to 0.5%; in assay [2] it was 0.7%; in [3], 1%. In [4], this compound gave a pKi of 5.07. Besides, in assay [5], the pIC50 was 4.82. The Emax in [6] was less than 10%.
